{
  "source": "ChEMBL document CHEMBL1150628",
  "about": "“Cytotoxic beta-carbolines and cyclic peroxides from the Palauan sponge Plakortis nigra” (J Nat Prod, 2002)",
  "note": "pIC50: −log10 of the molar value.",
  "data": [
    {"system": "HCT-116", "experiment": "Cytotoxicity against human HCT116 cells", "assay_type": "functional, cell-based", "values": [
      {"smiles": "C[C@H]1C[C@@](C)(CCCCCCCCCCCCc2ccccc2)OC1=O", "note": "(relative stereo)", "pIC50": 4.84},
      {"smiles": "CN(C)CCc1nccc2c1[nH]c1cc(Br)ccc12", "note": "[PLAKORTAMINE A]", "pIC50": 5.49},
      {"smiles": "C=Cc1nccc2c1[nH]c1cc(Br)ccc12", "note": "[PLAKORTAMINE B]", "pIC50": 6.21},
      {"smiles": "CN(CCc1nccc2c1[nH]c1cc(Br)ccc12)CCc1nccc2c1[nH]c1cc(Br)ccc12", "note": "[PLAKORTAMINE C]", "pIC50": 5.67},
      {"smiles": "CN1CCC(c2nccc3c2[nH]c2cc(Br)ccc23)O1", "note": "(stereo not given) [PLAKORTAMINE D]", "pIC50": 4.82}
    ]}
  ]
}
